Source: patent publication US7049340B1, “Neuroprotective and retinoprotective ophthalmologic drugs” (priority 1999, dated 2006)
Several values for one entry are separate records, joined by “and”; a condition that tells them apart may be missing. Identical values can stand only once.

How the values were obtained:
Type in all cases: in vivo, human
[1] = system: patients with glaucomatous neuropathy; experiment: Clinical treatment of glaucomatous neuropathy: visual acuity, automated perimetry, ocular tension; settings: for Mean drop MD: normal −2..2; for Corr. Loss variance CLV: normal 0..4; for Loss variance LV: normal 0..6; for visual acuity after treatment: most spectacular case
Protocol: (§1) The invention will now be illustrated by the following description of clinical examples which, of course, are not limiting in nature. In these examples the active principle, in particular ramipril, was administered continuously in an oral form, in an amount of 1.25 mg per day.
FIGS. 1 and 2 reproduce the fields of vision of the left eye; FIGS. 3 and 4 reproduce the field of vision of the right eye as perceived by one of the treated patients who suffered from glaucomatous neuropathy, respectively before treatment (FIGS. 1 and 3) and after treatment, 10 days later (FIGS. 2 and 4).
(§2) The grey scale provides an “image” of visual function, point by point, of different regions of the retina; the palest zones correspond to regions in which the visual functions are the least altered; the darkest zones correspond to those that have altered the most. […] A reduction in the darkest regions also indicates local visual recovery in regions that have become lighter.
(§3) The values that appear in the right hand portions of the figures correspond to the threshold values measured locally at set points in the retina. […] In contrast, the values that appear in the lower right hand portions of the figures correspond to local loss of vision in the zones concerned of the retina compared with the normal.
(§4) The Bebie curves also provide comparative images of the visual capacity of the subject under examination (lower curves) compared with the curves for normal or quasi-normal subjects (upper curves).

[2] = system: severely myopic patients with degenerative chorioretinopathy; experiment: Clinical treatment of degenerative chorio-retinopathy in severe myopia: corrected visual acuity
Protocol: as §1
By way of example, visual acuity changed respectively: from simple light perception (LP) to 1/20 for the monophtalmic eye; from 2/10 (RE) 1/10 (LE) to 5/10 (RE) and 5/10 (LE); from 1.5/10 to 3/10; from 1/20 (both eyes) to 2/10 (RE) and 1/10 (LE); from 1/10 (RE) and 1/10 (LE) to 6/10 (RE) and 3/10 (LE). Clearly, the term RE used here means “right eye” and the term LE used here means “left eye”.

[3] = system: patients with retinitis pigmentosa; experiment: Clinical treatment of retinitis pigmentosa: visual acuity, automated perimetry, electroretinogram; settings: for visual acuity after treatment: 1.25 mg orally, two months; for Mean drop MD: normal −2..2; for Corr. Loss variance CLV: normal 0..4; for Loss variance LV: normal 0..6; for Mean sensitivity MS: sectorial retinitis pigmentosa
Protocol: as §1
FIGS. 5 and 6 reproduce the fields of vision of the left eye; FIGS. 7 and 8 reproduce the field of vision of the right eye as perceived by one of the treated patients who suffered from sectorial retinitis pigmentosa, respectively before treatment (FIGS. 5 and 7) and after treatment, two months later (FIGS. 6 and 8).
as §2, §3, §4
Three patients were treated with 1.25 mg of ramipril orally and their visual acuity improved in the space of two months: […]

[4] = system: patient with Stargardt's disease, fundus flavimaculatus; experiment: Clinical treatment of Stargardt's flavimaculatus disease: visual acuity; settings: for visual acuity after treatment: one patient
Protocol: as §1
(§5) Ramipril was used in the following three disorders: retinitis pigmentosa; Stargardt's disease, fundus flavimaculatus; adult pseudo-vitelliform dystrophy.
One patient was treated; acuity improved from 1/20 to 1/10 in the right eye and from 1/50 to 3/10 in the left eye.

[5] = system: patient with pseudovitelliform dystrophy; experiment: Clinical treatment of adult pseudo-vitelliform dystrophy: visual acuity; settings: for visual acuity after treatment: one patient, one month
Protocol: as §1, §5
One patient was tested. Acuity improved in one month from 1.6 to 2/10 in the right eye and from 2/10 to 3/10 in the left eye. The activity of the ramipril in these hereditary dystrophies is unique.

[6] = system: patients with retinal venous occlusion; experiment: Clinical treatment of retinal venous occlusions; settings: for visual acuity after treatment: oedematous and ischemic type venous branch occlusion, two months
Protocol: as §1

[7] = system: patients with central serous chorioretinopathy; experiment: Clinical treatment of retinal epitheliopathy and central serous chorioretinopathy (CSCR); settings: in a few days to a few weeks
Protocol: as §1

healthy subject = experiment: General arterial pressure at doses that improve field of vision; settings: healthy subject
Description: Effective doses for producing effects in the ophtalmologic field are desirably lower than doses that would induce general arterial hypotension in a subject with normal pressure. Clearly, the doses that can be used can be higher in subjects with hypertension, although this is not necessary, since the desired effect is that obtained in the ophtalmologic field.

CCOC(=O)[C@H](CCc1ccccc1)N[C@@H](C)C(=O)N1[C@H](C(=O)O)C[C@@H]2CCC[C@@H]21 [ramipril]
scotomas ([1]; automated perimetry): absolute scotomas became relative
reduction of loss in mean sensitivity ([1]; automated perimetry, on average): 30%
ocular tension ([1]; irregular amount): Significant reduction
Mean drop MD ([1]; left eye after treatment (10 days), Mean, before 9.9): 6.2 dB
Corr. Loss variance CLV ([1]; left eye after treatment (10 days), Mean, before 22.4): 13.1 dB^2
Mean sensitivity MS ([1]; left eye after treatment (10 days), Mean, before treatment 16.5): 20.2
Mean drop MD ([1]; left eye after treatment (10 days), Phase 1, before 9.5): 5.7 dB
Loss variance LV ([1]; left eye after treatment (10 days), Phase 1, before 26.8): 16.8 dB
Mean sensitivity MS ([1]; left eye after treatment (10 days), Phase 1, before treatment 16.9): 20.0
Mean drop MD ([1]; left eye after treatment (10 days), Phase 2, before 9.4): 6.8 dB
Loss variance LV ([1]; left eye after treatment (10 days), Phase 2, before 29.3): 26.5 dB
Mean sensitivity MS ([1]; left eye after treatment (10 days), Phase 2, before treatment 17.3): 20.0
visual acuity after treatment ([1]; LE, before 3/10): 10/10
visual acuity after treatment ([1]; RE, before 6/10): 8/10
Mean drop MD ([1]; right eye after treatment (10 days), Mean, before 9.5): 4.8 dB
Corr. Loss variance CLV ([1]; right eye after treatment (10 days), Mean, before 21.8): 13.1 dB^2
Mean sensitivity MS ([1]; right eye after treatment (10 days), Mean, before treatment 16.9): 21.6
Mean drop MD ([1]; right eye after treatment (10 days), Phase 1, before 9.0): 4.1 dB
Loss variance LV ([1]; right eye after treatment (10 days), Phase 1, before 28.6): 17.2 dB
Mean sensitivity MS ([1]; right eye after treatment (10 days), Phase 1, before treatment 17.4): 22.2
Mean drop MD ([1]; right eye after treatment (10 days), Phase 2, before 9.3): 4.7 dB
Loss variance LV ([1]; right eye after treatment (10 days), Phase 2, before 21.0): 10.4 dB
Mean sensitivity MS ([1]; right eye after treatment (10 days), Phase 2, before treatment 17.4): 21.9
visual acuity after treatment ([2]; case 1, monophtalmic eye, before simple light perception (LP)): 1/20
visual acuity after treatment ([2]; case 2, LE, before 1/10): 5/10
visual acuity after treatment ([2]; case 2, RE, before 2/10): 5/10
visual acuity after treatment ([2]; case 3, before 1.5/10): 3/10
visual acuity after treatment ([2]; case 4, LE, before 1/20): 1/10
visual acuity after treatment ([2]; case 4, RE, before 1/20): 2/10
visual acuity after treatment ([2]; case 5, LE, before 1/10): 3/10
visual acuity after treatment ([2]; case 5, RE, before 1/10): 6/10
corrected visual acuity ([2]; even in a low dose, always, despite extremely severe myopic choroidosis): improvement in corrected visual acuity
visual acuity after treatment ([3]; first patient, right eye, before doubtful light perception): 1/50
visual function ([3]; retinitis pigmentosa, all cases): improvement in visual function
visual acuity after treatment ([3]; second patient, monophthalmic, before 2/10): 5/10
visual acuity after treatment ([3]; third patient (sectorial), left eye, before 1.6): 4/10
visual acuity after treatment ([3]; third patient (sectorial), right eye, before 1.6): 6/10
Mean drop MD ([3]; third patient, left eye after two months, Mean, before 10.3): 6.5 dB
Corr. Loss variance CLV ([3]; third patient, left eye after two months, Mean, before 52.5): 48.0 dB^2
Mean drop MD ([3]; third patient, left eye after two months, Phase 1, before 9.8): 6.2 dB
Loss variance LV ([3]; third patient, left eye after two months, Phase 1, before 60.6): 51.8 dB
Mean drop MD ([3]; third patient, left eye after two months, Phase 2, before 9.6): 7.0 dB
Loss variance LV ([3]; third patient, left eye after two months, Phase 2, before 52.8): 63.9 dB
Mean drop MD ([3]; third patient, right eye after two months, Mean, before 10.6): 8.8 dB
Corr. Loss variance CLV ([3]; third patient, right eye after two months, Mean, before 66.0): 65.6 dB^2
Mean drop MD ([3]; third patient, right eye after two months, Phase 1, before 10.2): 8.7 dB
Loss variance LV ([3]; third patient, right eye after two months, Phase 1, before 70.4): 67.5 dB
Mean drop MD ([3]; third patient, right eye after two months, Phase 2, before 11.5): 9.2 dB
Loss variance LV ([3]; third patient, right eye after two months, Phase 2, before 86.9): 79.8 dB
Mean sensitivity MS ([3]; third patient, left eye after two months, Mean, before 16.8): 19.9 and 20.9
Mean sensitivity MS ([3]; third patient, left eye after two months, Phase 1, before 17.3): 21.2
Mean sensitivity MS ([3]; third patient, left eye after two months, Phase 2, before 17.9): 20.8
Mean sensitivity MS ([3]; third patient, right eye after two months, Mean, before 16.5): 18 and 18.3
Mean sensitivity MS ([3]; third patient, right eye after two months, Phase 1, before 16.8): 18.4
Mean sensitivity MS ([3]; third patient, right eye after two months, Phase 2, before 16.0): 18.2
electroretinogram ([3]; third patient, especially in the red and in the left eye): substantially improved
visual function ([4]; Stargardt's disease, fundus flavimaculatus, all cases): improvement in visual function
visual acuity after treatment ([4]; left eye, before 1/50): 3/10
visual acuity after treatment ([4]; right eye, before 1/20): 1/10
visual function ([5]; adult pseudo-vitelliform dystrophy, all cases): improvement in visual function
visual acuity after treatment ([5]; left eye, before 2/10): 3/10
visual acuity after treatment ([5]; right eye, before 1.6): 2/10
visual acuity after treatment ([6]; first patient, before 2/10): 8/10
functional and angiographic outcome ([6]; majority of patients treated): improved both on the functional and on the angiographic level
visual acuity after treatment ([6]; second patient, before 6/10): 10/10
blister (retinal serous detachment) [7]: reduction in the blister
visual acuity and central field of vision [7]: improvement in visual acuity and in the central field of vision
effect on arterial pressure of doses that improve field of vision (healthy subject): do not cause arterial hypertension
